What was measured:
GSPT1 = GSPT1 (Homo sapiens, UniProt P15170+Q96SW2); assay: HiBiT degradation assay, GSPT1, Procedure A; type: cell-based; parameters: HiBit-GSPT1 KI HEK293(LgBit) Cells; host or cells: HEK293(LgBit) knock-in cells; conditions: six hours
Method in brief: (§1)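 Six-hour treatment at 37° C, ten doses between 10 μM and 0.005 μM, then HiBiT lytic luminescence. Fitted DC50 and Ymin.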

CK1α = target: T1, CK1α (Homo sapiens, UniProt P48729+Q96SW2); assay: HiBiT degradation assay, CK1α, Procedure A; type: cell-based; conditions: six hours
T1 construct: CSNK1A1-HiBit KI HEK293(LgBit) Cells; host or cells: HEK293(LgBit) knock-in cells
Method in brief: as §1

T1 sequence (P48729 whole entry): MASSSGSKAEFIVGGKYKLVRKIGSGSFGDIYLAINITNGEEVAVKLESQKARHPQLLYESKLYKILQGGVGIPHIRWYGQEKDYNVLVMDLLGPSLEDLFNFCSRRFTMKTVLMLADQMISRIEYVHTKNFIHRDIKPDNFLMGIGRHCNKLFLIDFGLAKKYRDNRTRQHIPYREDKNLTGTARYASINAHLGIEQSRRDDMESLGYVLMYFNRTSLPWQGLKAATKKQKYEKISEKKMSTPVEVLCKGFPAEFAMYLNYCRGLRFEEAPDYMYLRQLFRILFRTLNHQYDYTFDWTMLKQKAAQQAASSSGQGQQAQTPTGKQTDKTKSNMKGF
T1 sequence (Q96SW2 whole entry): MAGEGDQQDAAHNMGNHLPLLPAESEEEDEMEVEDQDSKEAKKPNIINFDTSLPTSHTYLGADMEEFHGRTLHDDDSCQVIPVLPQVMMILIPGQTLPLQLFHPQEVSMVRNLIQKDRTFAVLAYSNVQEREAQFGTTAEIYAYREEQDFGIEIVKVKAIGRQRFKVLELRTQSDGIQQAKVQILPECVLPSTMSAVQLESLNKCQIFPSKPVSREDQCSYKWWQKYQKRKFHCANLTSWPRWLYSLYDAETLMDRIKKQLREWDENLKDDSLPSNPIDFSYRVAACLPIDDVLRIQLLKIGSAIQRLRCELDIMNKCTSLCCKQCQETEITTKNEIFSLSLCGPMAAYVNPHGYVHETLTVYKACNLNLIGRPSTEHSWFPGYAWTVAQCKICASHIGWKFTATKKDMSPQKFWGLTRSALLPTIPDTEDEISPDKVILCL
T1 sequence (Q16531 whole entry partner): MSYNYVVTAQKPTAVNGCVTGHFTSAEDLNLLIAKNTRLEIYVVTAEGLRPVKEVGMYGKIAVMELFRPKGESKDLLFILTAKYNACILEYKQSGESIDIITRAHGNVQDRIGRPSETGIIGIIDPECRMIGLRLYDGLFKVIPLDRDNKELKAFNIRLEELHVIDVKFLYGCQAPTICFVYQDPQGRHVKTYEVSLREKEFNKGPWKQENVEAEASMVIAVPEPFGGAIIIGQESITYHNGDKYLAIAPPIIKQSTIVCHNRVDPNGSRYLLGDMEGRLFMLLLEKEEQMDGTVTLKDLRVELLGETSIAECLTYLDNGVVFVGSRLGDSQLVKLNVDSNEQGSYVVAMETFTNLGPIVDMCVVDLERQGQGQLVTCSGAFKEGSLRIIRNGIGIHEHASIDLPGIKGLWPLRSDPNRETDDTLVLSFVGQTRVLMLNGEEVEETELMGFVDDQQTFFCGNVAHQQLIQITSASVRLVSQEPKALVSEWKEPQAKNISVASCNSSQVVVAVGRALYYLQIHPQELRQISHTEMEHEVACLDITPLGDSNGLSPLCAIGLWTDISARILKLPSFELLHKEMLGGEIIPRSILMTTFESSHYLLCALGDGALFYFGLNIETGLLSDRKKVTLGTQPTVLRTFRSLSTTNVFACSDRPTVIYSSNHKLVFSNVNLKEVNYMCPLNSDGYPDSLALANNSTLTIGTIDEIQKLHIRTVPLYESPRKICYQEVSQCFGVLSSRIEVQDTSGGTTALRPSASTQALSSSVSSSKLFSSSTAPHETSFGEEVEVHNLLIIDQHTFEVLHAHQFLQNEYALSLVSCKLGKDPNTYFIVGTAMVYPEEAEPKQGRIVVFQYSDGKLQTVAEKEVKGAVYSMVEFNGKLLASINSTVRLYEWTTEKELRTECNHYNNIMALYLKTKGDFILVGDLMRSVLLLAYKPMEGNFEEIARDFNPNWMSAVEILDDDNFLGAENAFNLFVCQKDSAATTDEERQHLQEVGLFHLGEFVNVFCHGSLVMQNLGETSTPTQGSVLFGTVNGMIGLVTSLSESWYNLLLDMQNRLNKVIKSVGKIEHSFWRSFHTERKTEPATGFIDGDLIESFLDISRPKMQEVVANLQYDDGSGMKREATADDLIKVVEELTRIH
Chain of GSPT1 (P15170 whole entry): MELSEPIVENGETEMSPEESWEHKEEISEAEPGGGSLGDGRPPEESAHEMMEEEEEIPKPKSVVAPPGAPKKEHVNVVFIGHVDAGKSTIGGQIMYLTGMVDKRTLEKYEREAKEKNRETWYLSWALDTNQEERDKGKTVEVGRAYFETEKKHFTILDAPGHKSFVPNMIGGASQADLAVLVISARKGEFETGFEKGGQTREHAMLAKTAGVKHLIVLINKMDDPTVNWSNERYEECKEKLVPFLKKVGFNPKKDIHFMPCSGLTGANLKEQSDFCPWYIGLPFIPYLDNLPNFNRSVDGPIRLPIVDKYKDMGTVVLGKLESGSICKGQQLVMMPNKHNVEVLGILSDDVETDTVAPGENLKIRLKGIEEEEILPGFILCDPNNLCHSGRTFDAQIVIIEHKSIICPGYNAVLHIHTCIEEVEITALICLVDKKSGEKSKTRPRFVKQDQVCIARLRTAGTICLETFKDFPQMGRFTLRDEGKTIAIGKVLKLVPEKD
Chain of GSPT1 (Q96SW2 whole entry): as the sequence (Q96SW2 whole entry) above
Chain of GSPT1 (Q16531 whole entry partner): as the sequence (Q16531 whole entry partner) above

| Compound | DC50 (GSPT1) | GSPT1 Ymin (GSPT1) | CK1α Ymin (CK1α) | DC50 (CK1α) |
| --- | --- | --- | --- | --- |
| Cc1cc(C)cc(-c2nc(-c3ccc4c(c3)CN(C3CCC(=O)NC3=O)C4=O)cn2C)c1 (centres unmarked) [Example 576] | < 25 nM | F (F = >75-100% remaining) | C (C = 0-10% remaining) | < 25 nM |
| Cn1cc(-c2ccc3c(c2)CN(C2CCC(=O)NC2=O)C3=O)nc1-c1ccn2ccnc2c1 (centres unmarked) [Example 585] | < 25 nM | F (F = >75-100% remaining) | D (D = >10- 25% remaining) | ≥ 25 nM |
| Cn1ncc(-c2ccc3c(c2)CN(C2CCC(=O)NC2=O)C3=O)c1C1=CCCCC1 (centres unmarked) [Example 589] | ≥ 25 nM | F (F = >75-100% remaining) | E (E = >25-75% remaining) | < 25 nM |
| CN1CCC(c2c(-c3ccc4c(c3)CN(C3CCC(=O)NC3=O)C4=O)cnn2C)CC1 (centres unmarked) [Example 590] | ≥ 25 nM | F (F = >75-100% remaining) | E (E = >25-75% remaining) | ≥ 25 nM |
| CN1CC=C(c2c(-c3ccc4c(c3)CN(C3CCC(=O)NC3=O)C4=O)cnn2C)CC1 (centres unmarked) [Example 591] | < 25 nM | F (F = >75-100% remaining) | E (E = >25-75% remaining) | ≥ 25 nM |
| Cn1ncc(-c2ccc3c(c2)CN(C2CCC(=O)NC2=O)C3=O)c1C1CCOC1 (centres unmarked) [Example 592] | ≥ 25 nM | F (F = >75-100% remaining) | E (E = >25-75% remaining) | ≥ 25 nM |
| Cn1ncc(-c2ccc3c(c2)CN(C2CCC(=O)NC2=O)C3=O)c1C1=CCOC1 (centres unmarked) [Example 593] | ≥ 25 nM | F (F = >75-100% remaining) | E (E = >25-75% remaining) | ≥ 25 nM |
| Cn1cnc(-c2ccc3c(c2)CN(C2CCC(=O)NC2=O)C3=O)c1C1=CCCCC1 (centres unmarked) [Example 595] | ≥ 25 nM | F (F = >75-100% remaining) | D (D = >10- 25% remaining) | < 25 nM |
| CN1CC=C(c2c(-c3ccc4c(c3)CN(C3CCC(=O)NC3=O)C4=O)ncn2C)CC1 (centres unmarked) [Example 596] | ≥ 25 nM | F (F = >75-100% remaining) | C (C = 0-10% remaining) | ≥ 25 nM |
| Cn1cnc(-c2ccc3c(c2)CN(C2CCC(=O)NC2=O)C3=O)c1C1CCOC1 (centres unmarked) [Example 597] | ≥ 25 nM | F (F = >75-100% remaining) | E (E = >25-75% remaining) | ≥ 25 nM |
| Cn1cnc(-c2ccc3c(c2)CN(C2CCC(=O)NC2=O)C3=O)c1C1=CCOC1 (centres unmarked) [Example 598] | ≥ 25 nM | E (E = >25-75% remaining) | D (D = >10- 25% remaining) | < 25 nM |
| Cn1nc(-c2ccc3c(c2)CN(C2CCC(=O)NC2=O)C3=O)nc1C1CCOCC1 (centres unmarked) [Example 599, 3-(5-(1-methyl-5-(tetrahydro-2H-pyran-4-yl)-1H-1,2,4-triazol-3-yl)-1-oxoisoindolin-2-yl)piperidine-2,6-dione] | ≥ 25 nM | F (F = >75-100% remaining) | E (E = >25-75% remaining) | < 25 nM |
| CC1CCN(c2nc(-c3ccc4c(c3)CN(C3CCC(=O)NC3=O)C4=O)nn2C)CC1 (centres unmarked) [Example 600, 3-(5-(1-methyl-5-(4-methylpiperidin-1-yl)-1H-1,2,4-triazol-3-yl)-1-oxoisoindolin-2-yl)piperidine-2,6-dione] | ≥ 25 nM | F (F = >75-100% remaining) | D (D = >10- 25% remaining) | < 25 nM |
| Cn1nc(-c2ccc3c(c2)CN(C2CCC(=O)NC2=O)C3=O)nc1N1CCc2ccccc2C1 (centres unmarked) [Example 603, 3-(5-(5-(3,4-dihydroisoquinolin-2 (1H)-yl)-1-methyl-1H-1,2,4-triazol-3-yl)-1-oxoisoindolin-2-yl)piperidine-2,6-dione] | ≥ 25 nM | F (F = >75-100% remaining) | D (D = >10- 25% remaining) | < 25 nM |
| Cn1c(C2CCOCC2)nc(-c2ccc3c(c2)CN(C2CCC(=O)NC2=O)C3=O)c1C1CC1 (centres unmarked) [Example 604, 3-(5-(5-cyclopropyl-1-methyl-2-(tetrahydro-2H-pyran-4-yl)-1H-imidazol-4-yl)-1-oxoisoindolin-2-yl)piperidine-2,6-dione] | ≥ 25 nM | F (F = >75-100% remaining) | C (C = 0-10% remaining) | < 25 nM |
| Cn1nc(-c2ccc3c(c2)CN(C2CCC(=O)NC2=O)C3=O)nc1C1CCC(C)(C)CC1 (centres unmarked) [Example 605, 3-(5-(5-(4,4-dimethylcyclohexyl)-1-methyl-1H-1,2,4-triazol-3-yl)-1-oxoisoindolin-2-yl)piperidine-2,6-dione] | ≥ 25 nM | F (F = >75-100% remaining) | E (E = >25-75% remaining) | < 25 nM |
| O=C1CCC(N2Cc3cc(-n4cncc4-c4ccccc4)ccc3C2=O)C(=O)N1 (centres unmarked) [Example 607, 3-(1-oxo-5-(5-phenyl-1H-imidazol-1-yl)isoindolin-2-yl)piperidine-2,6-dione] | ≥ 25 nM | F (F = >75-100% remaining) | E (E = >25-75% remaining) | ≥ 25 nM |
| Cn1nc(-c2ccc3c(c2)CN(C2CCC(=O)NC2=O)C3=O)nc1N1CCC2(CC1)CC2 (centres unmarked) [Example 608, 3-(5-(1-methyl-5-(6-azaspiro[2.5]octan-6-yl)-1H-1,2,4-triazol-3-yl)-1-oxoisoindolin-2-yl)piperidine-2,6-dione] | ≥ 25 nM | F (F = >75-100% remaining) | D (D = >10- 25% remaining) | < 25 nM |
| Cn1nc(-c2ccc3c(c2)CN(C2CCC(=O)NC2=O)C3=O)nc1N1Cc2ccccc2C1 (centres unmarked) [Example 609, 3-(5-(5-(isoindolin-2-yl)-1-methyl-1H-1,2,4-triazol-3-yl)-1-oxoisoindolin-2-yl)piperidine-2,6-dione] | ≥ 25 nM | F (F = >75-100% remaining) | E (E = >25-75% remaining) | < 25 nM |
| CC(C)n1nc(-c2ccccc2)nc1-c1ccc2c(c1)CN(C1CCC(=O)NC1=O)C2=O (centres unmarked) [Example 610, 3-(5-(1-isopropyl-3-phenyl-1H-1,2,4-triazol-5-yl)-1-oxoisoindolin-2-yl)piperidine-2,6-dione] | ≥ 25 nM | E (E = >25-75% remaining) | D (D = >10- 25% remaining) | < 25 nM |
| Cn1nc(-c2ccc3c(c2)CN(C2CCC(=O)NC2=O)C3=O)nc1N1CCCCCC1 (centres unmarked) [Example 611, 3-(5-(5-(azepan-1-yl)-1-methyl-1H-1,2,4-triazol-3-yl)-1-oxoisoindolin-2-yl)piperidine-2,6-dione] | ≥ 25 nM | F (F = >75-100% remaining) | C (C = 0-10% remaining) | < 25 nM |

More lines, now with the values ahead:

| DC50 (GSPT1) | GSPT1 Ymin (GSPT1) | CK1α Ymin (CK1α) | DC50 (CK1α) | Compound |
| --- | --- | --- | --- | --- |
| ≥ 25 nM | F (F = >75-100% remaining) | D (D = >10- 25% remaining) | < 25 nM | CCCCCCc1ccc(-c2nc(-c3ccc4c(c3)CN(C3CCC(=O)NC3=O)C4=O)cn2C)cc1 (centres unmarked) [Example 575] |
| < 25 nM | E (E = >25-75% remaining) | C (C = 0-10% remaining) | < 25 nM | CCCCc1ccc(-c2nc(-c3ccc4c(c3)CN(C3CCC(=O)NC3=O)C4=O)cn2C)cc1 (centres unmarked) [Example 577] |
| < 25 nM | E (E = >25-75% remaining) | C (C = 0-10% remaining) | < 25 nM | COc1cccc(-c2nc(-c3ccc4c(c3)CN(C3CCC(=O)NC3=O)C4=O)cn2C)c1 (centres unmarked) [Example 578] |
| < 25 nM | F (F = >75-100% remaining) | C (C = 0-10% remaining) | < 25 nM | COc1cc(-c2nc(-c3ccc4c(c3)CN(C3CCC(=O)NC3=O)C4=O)cn2C)ccc1Cl (centres unmarked) [Example 579] |
| ≥ 25 nM | F (F = >75-100% remaining) | C (C = 0-10% remaining) | < 25 nM | Cn1cc(-c2ccc3c(c2)CN(C2CCC(=O)NC2=O)C3=O)nc1-c1cccc(OC2CC2)c1 (centres unmarked) [Example 580] |
| < 25 nM | F (F = >75-100% remaining) | C (C = 0-10% remaining) | < 25 nM | Cn1cc(-c2ccc3c(c2)CN(C2CCC(=O)NC2=O)C3=O)nc1-c1ccc(OC2CC2)cc1 (centres unmarked) [Example 581] |
| < 25 nM | F (F = >75-100% remaining) | C (C = 0-10% remaining) | < 25 nM | Cn1cc(-c2ccc3c(c2)CN(C2CCC(=O)NC2=O)C3=O)nc1-c1ccc(C2CCCCC2)cc1 (centres unmarked) [Example 582] |
| < 25 nM | F (F = >75-100% remaining) | C (C = 0-10% remaining) | < 25 nM | COc1cc(-c2nc(-c3ccc4c(c3)CN(C3CCC(=O)NC3=O)C4=O)cn2C)ccc1F (centres unmarked) [Example 583] |
| ≥ 25 nM | F (F = >75-100% remaining) | C (C = 0-10% remaining) | < 25 nM | COc1ccc(-c2nc(-c3ccc4c(c3)CN(C3CCC(=O)NC3=O)C4=O)cn2C)cc1Cl (centres unmarked) [Example 584] |
| ≥ 25 nM | F (F = >75-100% remaining) | C (C = 0-10% remaining) | < 25 nM | Cn1cc(-c2ccc3c(c2)CN(C2CCC(=O)NC2=O)C3=O)nc1-c1cc(F)cc(Cl)c1 (centres unmarked) [Example 586] |
| ≥ 25 nM | F (F = >75-100% remaining) | C (C = 0-10% remaining) | < 25 nM | Cn1cc(-c2ccc3c(c2)CN(C2CCC(=O)NC2=O)C3=O)nc1-c1ccc(C(F)F)cc1 (centres unmarked) [Example 587] |

Reference: patent US20240158370A1, “CK1 alpha AND DUAL CK1 alpha / GSPT1 DEGRADING COMPOUNDS” (Innovo Therapeutics, Inc., priority 2022, published 2024)
